Here are results for one compound from patent US9206124B2, “Treatment of drug-resistant cancer with 2-aryl-2-(3-indolyl) acetohydroxamates” (New Mexico Technical Research Foundation, priority 2013, dated 2015).

The subject of test [1] is HeLa cervical adenocarcinoma cells. The test can be described thus: MTT antiproliferative assay, HeLa. The class given is cell-based. The settings on record: Homo sapiens, Table 1, 48 h treatment, ± SD, read-out: cell viability GI50, HeLa. An excerpt: (§1) This finding led to an exploration of the SAR analyses by synthesizing the first generation compounds 3 containing diverse substituents at different positions in the 2-aryl-2-(3-indolyl)acetohydroxamate skeleton and testing this series for in vitro growth inhibition using the MTT colorimetric assay against two cell lines, human HeLa cervical and MCF-7 breast adenocarcinomas (Table 1). It emerged from these experiments that the substitution on the benzene ring of the indole moiety (R^2≠H) was not tolerated (e.g., 3abfa and 3acfa), whereas the nitrogen could be derivatized (R^1≠H) with only a small activity drop (e.g., 3bafa vs 3aafa).
(§2) Human cancer cell lines were obtained from the American Type Culture Collection (ATCC, Manassas, Va., USA), the European Collection of Cell Culture (ECACC, Salisbury, UK) and the Deutsche Sammlung von Mikroorganismen and Zellkulturen (DSMZ, Braunschweig, Germany). Human cervical adenocarcinoma HeLa cells were cultured in DMEM supplemented with 10% fetal bovine serum (FBS). Human mammary carcinoma MCF-7 cells were cultured in RPMI supplemented with 10% FBS. The U87 cells (ATCC HTB-14) were cultured in DMEM culture medium, while the A549 cells (DSMZ ACC107) were cultured in RPMI culture medium supplemented with 10% heat-inactivated FBS. The glioblastoma multiforme Hs683 (ATCC HTB-138) and the T98G (ATCC CRL-1690) cell lines were cultivated in DMEM supplemented with 10% FBS. The Human uterine sarcoma MES-SA and MES-SA/Dx5 cells were cultured in RPMI-1640 medium supplemented with 10% FBS with MES SA/Dx5 maintained in the presence of 500 nM Doxorubicin (Sigma). SKMEL-28 cells (ATCC HTB72) and U373 glioblastoma cells (ECACC 08061901) were cultured in RPMI culture medium supplemented with 10% heat-inactivated FBS. Cell culture media were supplemented with 4 mM glutamine (Lonza code BE17-605E), 100 μg/mL gentamicin (Lonza code 17-5182), and penicillin-streptomycin (200 units/ml and 200 μg/ml) (Lonza code 17-602E). Neurosphere culture GBM 031810 was established using known methods and maintained in Neurobasal medium (Invitrogen Carlsbad, Calif.) with B27 supplement (20 ul/ml; Invitrogen), Glutamax (10 ul/ml; Invitrogen), fibroblast growth factor-2 (20 ng/ml; Peprotech, Rocky Hill, N.J., USA), epidermal growth factor (20 ng/ml; Peprotech), heparin (32 IE/ml; Sigma Aldrich, St. Louis, Mo.), and penicillin-streptomycin (1×, Invitrogen). Growth factors and heparin were renewed twice weekly. All cell lines were cultured in T25 flasks, maintained and grown at 37° C., 95% humidity, 5% CO2.
(§3) Antiproliferative properties of the synthesized compounds were evaluated by the MTT assay. All compounds were dissolved in DMSO at a concentration of either 100 mM or 50 mM prior to cell treatment. The cells were trypsinized and seeded at 4×10^3 cells per well into 96-well plates. The cells were grown for 24 h, treated with compounds at concentrations ranging from 0.001 to 100 μM and incubated for 48 h in 200 μL media. 20 μL of MTT reagent in serum free medium (5 mg/mL) was added to each well and incubated further for 2 h. Media was removed and the resulting formazan crystals were re-solubilized in 200 μL of DMSO. A490 was measured using a Molecular Devices Thermomax plate reader. The experiments were performed in quadruplicate and repeated at least twice for each compound per cell line. Cells treated with 0.1% DMSO were used as a negative control; 1 μM phenyl arsine oxide (PAO) was used as a positive control.

Test [2] relates to GBM 031810 neurosphere cells. The test can be described thus: Antiproliferative effect on patient-derived GBM neurosphere culture. The settings on record: Homo sapiens, average IC50 ± SD from three determinations, read-out: GI50 in vitro, GBM 031810 (average IC50). It is filed as cell-based.
Description: Given the ability of the hydroxamates to overcome drug resistance a few select compounds were further evaluated against glioma cells grown in neurosphere conditions, which are known to promote the growth of stem-like cells from human glioma tissue. Indeed, the neurospheres show the ability of self-renewal by regrowing in culture from individual cells, and can differentiate into multiple neural lineages and recapitulate human gliomas on both histological and genetic levels more faithfully than serum cultured glioma cell lines when injected into the brains of mice. Because, neurosphere cells are generally resistant to radiation and chemotherapy, the micromolar to submicromolar activity of the hydroxamates against the glioma neurosphere cell cultures is noteworthy (Table 4). […] It is worthy of note, that the unmethylated MGMT promoter leading to such temozolomide resistance is found in about half of all GBM patients, who respond poorly to temozolomide chemotherapy. To date, no alternative treatment exists for this group of patients.
as §2, with “Growth factors and heparin were renewed twice weekly. All cell lines were cultured in T25 flasks, maintained and grown at 37° C., 95% humidity, 5% CO2.” left out

Test [3] has as its system Hs683 anaplastic oligodendroglioma cells. The test can be described thus: MTT antiproliferative assay, Hs683. The class given is cell-based. The settings on record: Homo sapiens, Hs 683, 48 h treatment, ± SD, apoptosis-sensitive reference, read-out: GI50 in vitro, Hs683. How it is done:
As part of the ongoing efforts aimed at identification of compounds active against cancer cells displaying resistance to proapoptotic agents, the selected 2-aryl-2-(3-indolyl)-acetohydroxamates were evaluated for in vitro growth inhibition against a panel of additional cancer cell lines including those resistant to various proapoptotic stimuli, such as human T98G and U87 glioblastoma and human A549 non-small-cell-lung cancer (NSCLC), as well as an apoptosis-sensitive tumor model, such as human Hs683 anaplastic oligodendroglioma, used as a reference. The data reveal that for the most part these compounds retain the single-digit antiproliferatve GI50 values in this challenging cancer cell panel.
as §2, §3

Test [4] deals with SKMEL-28 melanoma cells. Description: Quantitative videomicroscopy, SKMEL-28. It is filed as cell-based, human. The settings on record: 25 μM. How it is done:
To obtain insight into the effectiveness of 2-aryl-2-(3-indolyl)acetohydroxamates against apoptosis-resistant cancers, computer-assisted phase-contrast microscopy (quantitative videomicroscopy) was employed to observe the phenotypic morphological changes in cancer cells as they are treated with these compounds. […] Based on the phase contrast pictures obtained by means of quantitative videomicroscopy, a global growth ratio (GGR) was calculated, which corresponds to the ratio of the mean number of cells present in a given image captured in the experiment (in this case after 24, 48 and 72 h) to the number of cells present in the first image (at 0 h). The ratio obtained in the 3aafa-treated experiment was then divided by the ratio obtained in the control. […] Thus, the GGR calculations are consistent with the MTT colorimetric data and indicate that it is the cytostatic properties associated with the hydroxamates that are responsible for their antiproliferative effects against apoptosis-resistant cancer cells, at least at relevant concentrations (slightly above the GI50 values).
Human cancer cell lines were obtained from the American Type Culture Collection (ATCC, Manassas, Va., USA), the European Collection of Cell Culture (ECACC, Salisbury, UK) and the Deutsche Sammlung von Mikroorganismen and Zellkulturen (DSMZ, Braunschweig, Germany). […]

Test [5] has as its system MCF-7 breast adenocarcinoma cells. The test can be described thus: MTT antiproliferative assay, MCF-7. The class given is cell-based. The note with it: Homo sapiens, MCF7, Table 1, 48 h treatment, ± SD, read-out: cell viability GI50, MCF7.
Description: as §1, §2, §3

Test [6] deals with HeLa cervical and MCF-7 breast adenocarcinomas. The test can be described thus: In vitro growth inhibition (MTT). It is filed as cell-based, human. The settings on record: HeLa and MCF-7.
Description: as §1, §3

SMILES strings stand for the structures.

Regarding `O=C(NO)C(c1ccccc1)c1c(-c2ccc3ccccc3c2)[nH]c2ccccc12` (stereo not shown) [Compound 3aafa], the GI50 was determined as 3.6 ± 0.5 µM in test [1], 8.9 ± 0.4 µM in test [3] and 3.4 ± 0.3 µM in test [5]. The IC50 in test [2] came out at 0.8 ± 0.6 µM. Moreover, the “phenotypic effect, SKMEL-28” value in test [4] (slightly exceeding GI50, FIG. 4) is given as “inhibits cancer cell proliferation without inducing cell death”. For the same compound, the “global growth ratio (GGR), SKMEL-28” value in test [4] (72 h observation, treated/control) is recorded as “ca. 0.3”. Also, the “antiproliferative potency (GI50)” value in test [6] was “single-digit micromolar”.
